Results: PubChem BioAssay AID248 (DTP/NCI, 2004)
Inconclusive results and toxic doses are left out. Rule as the data show it: active = T/C of 150% or more; inactive = T/C below 125%.

Test system: L1210 leukemia ip in BDF1 mice, survival T/C
Assay: NCI In Vivo Anticancer Drug Screen. Data for tumor model L1210 Leukemia (intraperitoneal) in B6D2F1 (BDF1) mice
Settings: endpoint: mean survival time, higher = longer survival
In short: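 Mice bearing the transplanted tumor received compound or vehicle. Survival of the treated group was divided by that of the vehicle-treated control group to give the ratio.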

[1] = dose: 100.0 mg/kg/injection, schedule: Q01DX009 (ip), vehicle: saline with Tween-80
[2] = dose: 100.0 mg/kg/injection, schedule: Q04DX003 (ip), vehicle: saline with Tween-80
[3] = dose: 200.0 mg/kg/injection, schedule: Q01DX009 (ip), vehicle: saline with Tween-80
[4] = dose: 200.0 mg/kg/injection, schedule: Q04DX003 (ip), vehicle: saline with Tween-80
[5] = dose: 400.0 mg/kg/injection, schedule: Q01DX009 (ip), vehicle: saline with Tween-80
[6] = dose: 400.0 mg/kg/injection, schedule: Q04DX003 (ip), vehicle: saline with Tween-80
[7] = dose: 100.0 mg/kg/injection, schedule: Q01DX001 (ip), vehicle: saline
[8] = dose: 200.0 mg/kg/injection, schedule: Q01DX001 (ip), vehicle: saline

Measured: T/C

O=c1c(N2CCOCC2)c(N2CCOCC2)c1=O
inactive: [1] 100 % of control | [2] 104 % of control | [3] 100 % of control | [4] 103 % of control | [5] 100 % of control | [6] 95 % of control

CCOC(=O)C(=O)C1CCCC1=O (configuration not stated)
inactive: [1] 102 % of control | [2] 92 % of control | [3] 98 % of control | [4] 100 % of control | [5] 96 % of control | [6] 94 % of control

CCOC(=O)CC1(C)OCC(c2ccccc2)O1 (configuration not stated)
inactive: dose: 222.0 mg/kg/injection, schedule: Q01DX Z (ip), vehicle: saline 106 % of control | dose: 333.0 mg/kg/injection, schedule: Q01DX Z (ip), vehicle: saline 86 % of control | dose: 500.0 mg/kg/injection, schedule: Q01DX Z (ip), vehicle: saline 91 % of control

Fc1cc(F)c(CCl)c(F)c1
inactive: dose: 100.0 mg/kg/injection, schedule: Q01DX009 (ip), vehicle: acetone 94 % of control

C[N+]1(C)C2CCC(OCc3ccccc3)C1COC2 (configuration not stated)
inactive: dose: 75.0 mg/kg/injection, schedule: Q01DX001 (ip), vehicle: saline 98 % of control | dose: 150.0 mg/kg/injection, schedule: Q01DX001 (ip), vehicle: saline 105 % of control

Cc1cc(C)c(C(=O)C(=S)N2CCOCC2)c(C)c1
inactive: dose: 200.0 mg/kg/injection, schedule: Q01DX009 (ip), vehicle: acetone 90 % of control | dose: 400.0 mg/kg/injection, schedule: Q01DX009 (ip), vehicle: acetone 96 % of control

CNC(=O)NC1C(CO)OC2OC(C)(C)OC21 (configuration not stated)
inactive: dose: 100.0 mg/kg/injection, schedule: Q04DX002 (ip), vehicle: saline 100 % of control | dose: 200.0 mg/kg/injection, schedule: Q04DX002 (ip), vehicle: saline 97 % of control | dose: 400.0 mg/kg/injection, schedule: Q04DX002 (ip), vehicle: saline 94 % of control

CC(=O)c1c2ccccc2cc2ccccc12
inactive: [7] 106 % of control | [8] 106 % of control | dose: 400.0 mg/kg/injection, schedule: Q01DX001 (ip), vehicle: saline 101 % of control

COc1cc2c(cc1OC)C(CNC(=O)/C=C/c1ccccc1)C2 (configuration not stated)
inactive: dose: 100.0 mg/kg/injection, schedule: Q01DX009 (ip), vehicle: Klucel (hydroxypropylcellulose) (HPC) 106 % of control | dose: 100.0 mg/kg/injection, schedule: Q04DX003 (ip), vehicle: Klucel (hydroxypropylcellulose) (HPC) 101 % of control | dose: 200.0 mg/kg/injection, schedule: Q01DX009 (ip), vehicle: Klucel (hydroxypropylcellulose) (HPC) 101 % of control | dose: 200.0 mg/kg/injection, schedule: Q04DX003 (ip), vehicle: Klucel (hydroxypropylcellulose) (HPC) 94 % of control | dose: 400.0 mg/kg/injection, schedule: Q01DX009 (ip), vehicle: Klucel (hydroxypropylcellulose) (HPC) 95 % of control | dose: 400.0 mg/kg/injection, schedule: Q04DX003 (ip), vehicle: Klucel (hydroxypropylcellulose) (HPC) 97 % of control

CN1C(=O)C2(c3ccccc31)C1CC3C(CO1)C1C2C3(CO)C[N+]1(C)C (configuration not stated)
inactive: [7] 97 % of control | [8] 102 % of control

OCC1OC(Oc2ccccc2)C(O)C(O)C1O (configuration not stated)
inactive: dose: 100.0 mg/kg/injection, schedule: Q04DX003 (ip), vehicle: saline 96 % of control | dose: 200.0 mg/kg/injection, schedule: Q04DX003 (ip), vehicle: saline 105 % of control | dose: 400.0 mg/kg/injection, schedule: Q04DX003 (ip), vehicle: saline 100 % of control
